The target of data set [1] is T1, RBD1 of MSI1 (Homo sapiens, UniProt O43347).
T1 construct: made in house; host or cells: Escherichia coli
T1 sequence (O43347 20-107): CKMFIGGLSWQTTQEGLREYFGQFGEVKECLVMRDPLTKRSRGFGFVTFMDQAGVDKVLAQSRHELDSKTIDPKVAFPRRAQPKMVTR
Description: FP dose-response (competition) disrupting RBD1-Numb^FITC complex. Format: binding. Here is the method:
To further examine the initial hits, we tested compounds with similar scaffolds shown in Figure 3 and Figure S1 in an FP dose-response assay. […] We thus focused our further validation studies on Aza-9.
Figure 4 FP dose-response validation compounds binding to RBD1 of MSI1. Ki values were calculated based on the Kd and the dose-response curves. TEXT PRINTED IN THE PICTURE: Aza-7: IC50 [μM]: 7.1; Ki [μM]: 3.0 | Aza-8: IC50 [μM]: 4.0; Ki [μM]: 1.7 | Aza-9: IC50 [μM]: 2.8; Ki [μM]: 1.2 | Aza-10: IC50 [μM]: 7.5; Ki [μM]: 3.2 | Aza-11: IC50 [μM]: 3.9; Ki [μM]: 1.7 | Aza-12: IC50 [μM]: 6.3; Ki [μM]: 2.7 | Aza-13: IC50 [μM]: 4.5; Ki [μM]: 1.9 | Aza-14: IC50 [μM]: 11.6; Ki [μM]: 5.0 | Aza-15: IC50 [μM]: >20 | Aza-16: IC50 [μM]: 6.8; Ki [μM]: 2.9 | Aza-17: IC50 [μM]: >20
pET21a-GB1-RBD1 (MSI1-RBD1) plasmids encoding the Homo sapiens RNA binding domain 1 (RBD1, residues 20-107) of MSI1 were constructed with Mus musculus cDNAs under T7 promoter. MSI1-RBD1 proteins were expressed in Escherichia coli and purified, as previously described. Protein concentrations were determined using the Bradford assay (Bio-Rad, Hercules, CA, USA). Purification of MSI2-RBD1 protein was carried out according to the previous publication.
FP, SPR and NMR assays were carried out according to the previous publication. For computer modeling of Aza-9 to MSI1/2, the AutoDock4.2.6 program was used for predicting the binding mode. The NMR structure of MSI1-RBD1 in complex with RNA (PDB: 2RS2) and the NMR structure of apo MSI2-RBD1 (PDB: 6C8U) were used as the receptor structure. The MSI1 RBD1–RNA interface and corresponding site in MSI2-RBD1 was used as the starting point for the docking calculations. The initial three-dimensional model of the Aza-9 compound was generated using the BABEL program and was used as starting coordinates to define the ligand structure. For docking, a grid box of size 40 × 44 × 56 A with 0.375 A spacing was centered at residue F23 in MSI1-RBD1 (or F24 in MSI2-RBD1). A total of 200 docking runs were carried out using the Lamarckian genetic algorithm. The docked conformation with the lowest energy was selected as the final conformation.

Data set [2] has as its target T2, MSI2-RBD1 (Homo sapiens, UniProt Q96DH6).
T2 construct: made in house
T2 sequence (Q96DH6 21-111 limits assumed): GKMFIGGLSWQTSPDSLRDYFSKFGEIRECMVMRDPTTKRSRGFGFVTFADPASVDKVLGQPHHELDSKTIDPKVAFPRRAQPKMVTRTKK
Description: FP dose response of binding to MSI2-RBD1 (Numb^FITC RNA). The source says:
To test whether Aza-9 can be used as a dual inhibitor to block the RNA-binding ability of both Musashi proteins, we tested Aza-9 for Musashi-2 (MSI2) binding in FP and NMR assays as previously described. […] These residues are in similar positions to F23, F65, and K93 in MSI1-RBD1 [36]. We mapped the peak intensity ratios lower than one standard deviation from the mean (Figure S2) to the structure of MSI2-RBD1. Residues with significant peak intensity reductions clustered around the RNA binding site, which is composed of the central four anti-parallel β sheets and surrounding loops (Figure 6C).
Figure 6 Aza-9 binds to MSI2-RBD1. (A) FP dose response of Aza-9 binding to MSI2-RBD1. (B) ^1H-^15N HSQC spectra of 80 μM ^15N and ^13C ILV methyl labeled MSI2-RBD1 with increasing molar ratios of AZA-9. (C) Mapping residues with peak intensity ratio lower than one standard deviation from the mean onto the structure of MSI2-RBD1. Residues with peak intensity ratio lower than 0.40 are colored red; residues with peak intensity ratios in the range of 0.40–0.54 are colored yellow. (D) Computational docking of Aza-9 bound to MSI2-RBD1. The Aza-9 is shown in sticks, and the protein is represented as spheres. Five of MSI2-RBD1 RNA binding residues (M23, G26, F64, V95, and K94) that undergo significant peak shifts are highlighted in green. […]

Data set [3] concerns T3, MSI1.
T3 construct: test whether biotinylated Numb RNA (Numb^biotin) can pull down MSI1 protein from the cell lysate; endogenous in cells; host or cells: HCT-116 β/W
The data set is described as follows: Numb RNA pull-down from HCT-116 β/W cell lysate. The settings on record: 20 μM, 6 h. The class given is cell-based, Human. The source says: To test whether Aza-9 disrupts the binding of MSI1 to Numb RNA in cells, we carried out an RNA pull-down assay using HCT-116 β/W cell lysate. Before we tested our compound in the assay, we tested whether biotinylated Numb RNA (Numb^biotin) can pull down MSI1 protein from the cell lysate. […] Mutations in Numb (Numb-mut^biotin) attenuated its binding to MSI1 (lane 2 versus lane 4, Figure 5B and Figure S4 top panel). As a positive control, we added non-labelled Numb RNA to the system, Numb RNA completely abolished the binding between Numb^biotin and MSI1 (lane 6 versus lane 4, Figure 5B and Figure S4 top panel). […] Next, we tested whether Aza-9 can attenuate MSI1 RNA binding.
RNA pull-downs were carried out according to manufacturer’s protocol with modifications (Roche, Basel, Switzerland). Briefly, HCT-116 β/W cells were plated on 100 mm dish on day 1. The next day, cells were treated with Aza-9 (20 μM) or DMSO for 6 h, and cell lysates were collected using buffer 1 from IP kit (Roche). Protein concentrations were measured for each sample, and streptavidin beads were added for preclearance and incubated at 4 °C for 3 h. After preclearance, for each sample, 500 μg of total protein was transferred to a new tube. For positive control, unlabeled Numb (final concentration: 5 μM) was added and incubated in 4 °C. […]

For data set [4], the system named is HCT-116. The data set is described as follows: MTT-based cytotoxicity assay. The class given is cell-based, Human. Here is the method: In an 3-(4,5-dimethylthiazol-2-yl)-2,5-diphenyl tetrazolium bromide (MTT)-based cytotoxicity assay, free Aza-9 had no effect on the cell viability (Figure 7A), potentially due to poor cellular uptake (Figure 7B, upper left panel). We then used PEGylated liposomes to facilitate Aza-9 entry into the cells (Figure 7B, bottom panel compare to upper left panel). Compared to the free Aza-9, which has no effect at 300 µM, Aza-9-liposome (Aza-9-lip) killed colon cancer cell line HCT-116 with an IC50 around 90 µM (Figure 7A). […] Consistent with MTT, Aza-9-lip, but not liposomes, inhibited cell proliferation in a cell growth assay (Figure 7C). […] (Figure 8A). To determine whether Aza-9-lip induces apoptosis and/or autophagy in the colon cancer cell lines, we first measured caspase-3 and PARP cleavage levels. As shown in Figure 8B and Figure S5, Aza-9-lip induced caspase-3 and PARP cleavage in HCT-116 and DLD-1 cells. […]
Human colon cancer cell lines HCT-116, DLD-1, and RKO were obtained from American Type Culture Collection (ATCC) and are as described by Lan et al.. Cell growth, MTT, cell cycle analysis, western blot analysis, RT-PCR, and quantitative real-time PCR were carried out according to our previous publications. For western blot analysis with Aza-9-liposome treatment, samples were collected after 24 h; for quantitative real-time PCR, samples were collected after 48 h. […]
In general terms: Tetrazolium assays rely on reduction of a dye to a coloured formazan, in cell work by metabolically active cells.

Data set [5] deals with T4, GB1-RBD1 (MSI1).
T4 construct: made in house; host or cells: Escherichia coli
The data set is described as follows: SPR binding to immobilized GB1-RBD1. Details: species or system Homo sapiens. The conditions noted are these: increasing concentrations. The source says:
An SPR assay with the protein GB1-RBD1 and not the RNA allowed us to evaluate the binding of the compound to the protein directly.
Figure 5 Validation of the top hit Aza-9. (A) SPR analyses of Aza-9 binding to immobilized GB1-RBD1. Sensorgram representing direct binding kinetics for Aza-9 are shown in response units (RUs) as a function of time with increasing concentrations (shown as colorful lines). (B) Numb RNA pulldown. (Top) Numb^biotin (lane 4) can pull down MSI1 but not CTL^biotin (lane 3); Numb-Mut^biotin (lane 2) partially pulled down MSI1. […] (Bottom) 20 μM Aza-9 attenuated the binding between MSI1 and Numb^biotin RNA. n = 2, one representative western blot is shown. (C) Overlay of 15N-HSQC (Heteronuclear single quantum coherence spectroscopy) spectra sections of MSI1-RBD1 (black), and MSI1-RBD1 bound to Aza-9 at different ratios. (D) Computational docking of Aza-9 bound to RBD1. The Aza-9 is shown in sticks, and the protein is represented as spheres. Three of MSI1-RBD1 RNA binding residues (W29, F23, and K93) that undergo significant peak shifts are highlighted in cyan.
FP, SPR and NMR assays were carried out according to the previous publication. For computer modeling of Aza-9 to MSI1/2, the AutoDock4.2.6 program was used for predicting the binding mode. […]
In general terms: Surface plasmon resonance follows binding to a sensor surface in real time, without labels.

Data set [6] deals with GB1-MSI1-RBD1 (Homo sapiens (Methods: human RBD1, …, UniProt O43347 20-107)). Description: fluorescence polarization; 2-10 nM RNA; FP with 2 nM FITC-RNA; 0-2% DMSO had no significant effect (2 h incubation); buffer, salt, pH and temperature not given (cited to earlier publications). The settings on record: protein: recombinant; tags: GB1 (protein G B1 domain); label: 3'-FITC; single strand. On the technique in general: In fluorescence polarisation assays a small probe gives low polarisation when free and higher when bound to something large.

[7] abbreviates: FP dose-response, RBD1 of MSI1, read-out: IC50.
Where [8] appears, read: calculated based on the Kd and the dose-response curves, read-out: Ki.

Read-outs that look alike come from different tables or passages of the source.

In general, IC50 refers to the concentration that gives 50% inhibition. As a reminder, the Ki is a measure of affinity in units of concentration, obtained from inhibition or displacement. Turning to `CC[C@H](C)/C=C(C)/C=C/C1=CC2=C(Cl)C(=O)[C@](C)(OC(C)=O)C(=O)C2=CO1` [Aza-7, sclerotiorin], in data set [1] (setting [7]), the IC50 came to 7100 nM. Besides, in data set [1] (setting [8]), the inhibition constant (Ki) is 3000 nM.

For `CC[C@H](C)/C=C(C)/C=C/C1=CC2=C(Cl)C(=O)C(C)(OC(C)=O)C(=O)C2=CO1` (some centres unmarked) [Aza-8], in data set [1] (setting [7]), the IC50 is 4000 nM. Further, the Ki in data set [1] (setting [8]) is 1700 nM.

On to `CC[C@H](C)/C=C(C)/C=C/C1=CC2=C(Br)C(=O)C(C)(OC(C)=O)C(=O)C2=CO1` (some centres unmarked) [Aza-9], for which the IC50 was 4100 nM in data set [2]; 2800 nM in data set [1] (setting [7]); over 300000 nM in data set [4] (Homo sapiens, HCT-116, MTT). Further, the Ki in data set [2] is 500 nM; in data set [1] (setting [8]), 1200 nM. In addition, in data set [3], the “binding between MSI1 and Numb RNA (pull-down)” value was “attenuate, at least in part”. Also, in data set [1], the “dose-response effect in disrupting the RBD1-Numb^FITC complex / affinity towards GB1-RBD1” value is “highest affinity”. The “effect on cell viability” value in data set [4] (300 µM, HCT-116) is reported as “no effect”. The “binding to GB1-RBD1 in SPR” value in data set [5] is “dose-dependent binding”.

Consider `CC[C@H](C)/C=C(C)/C=C/C1=CC2=CC(=O)C(C)(O)C(=O)C2=CO1` (some centres unmarked) [Aza-11], for which the IC50 in data set [1] (setting [7]) is 3900 nM. Further, in data set [1] (setting [8]), the Ki was 1700 nM.

In data set [1], `CC[C@H](C)/C=C(C)/C=C/C1=CC2=C(Cl)C(=O)C(C)(O)C(=O)C2=CO1` (some centres unmarked) [Aza-12] registered an IC50 of 6300 nM and a Ki of 2700 nM.

For the molecule `CC[C@H](C)/C=C(C)/C=C/C1=CC2=C(Br)C(=O)C(C)(O)C(=O)C2=CO1` (some centres unmarked) [Aza-13], the IC50 in data set [1] (setting [7]) was found to be 4500 nM. Further, in data set [1] (setting [8]), the Ki was 1900 nM.

B1: NumbFITC RNA (ssRNA)
RNA: UAGGUAGUAGUUUUA
One may read the Kd as the equilibrium constant for the complex coming apart. Consider B1, for which, in data set [6], the Kd is under 250 nM.

The values are drawn from PMC7463734, “Identification and Validation of an Aspergillus nidulans Secondary Metabolite Derivative as an Inhibitor of the Musashi-RNA Interaction” (Cancers, 2020).
